Each structure is given as a SMILES string.

The target in this experiment is T1, human A2a receptor (Homo sapiens, UniProt P29274).
T1 construct: purchased Perkin-Elmer RBHA2AM400UA; host or cells: HEK293 cells (membranes)
Nature of the experiment: A2a competition binding assay, Scintillation Proximity technology. The conditions noted are these: membranes from HEK293 cells expressing human A2a receptor; for Ki: Ki by Cheng-Prusoff equation; for EC50: 0.5 nM tritiated ligand. The protocol:
Binding affinities of compounds of the invention for the human A2a receptor were determined in a competition binding assay using Scintillation Proximity technology. Thus, […] from HEK293 cells expressing the human A2a receptor were incubated with a compound of the invention at concentrations ranging from 3000 nM to 0.15 nM in a reaction mixture containing also 0.5 nM of a tritiated form of 5-amino-7-[2-phenethyl]-2-(furan-2-yl)-7H-pyrazolo[4,3-e][1,2,4]triazolo[1,5-c]pyrimidine (the tritiated compound) and 100 μg of wheat germ agglutin-coated yttrium silicate SPA beads for one hour at room temperature with agitation. The beads were then allowed to settle to the bottom of the wells for 1 hr, after which the membrane-associated radioactivity was determined by scintillation counting in a TopCount microplate reader. Ki values were determined using the Cheng-Prusoff equation.
HEK293 cells expressing the human, rat, dog or monkey adenosine 2a receptor (Purchased from Perkin-Elmer # RBHA2AM400UA).
The Tritiated compound was prepared in-house by MRL Radiochemistry according to published methods.
Wheat germ agglutinin-coated yttrium silicate SPA beads (GE Healthcare #RPNQ0023). Dilute to 25 mg/ml in assay buffer.
Assay Buffer was prepared in house: Dulbecco's calcium and magnesium free phosphate buffered saline+10 mM MgCl2
Adenosine deaminase from calf intestine, 10 mg/2 ml (Roche #10 102 105 001).
A2a antagonist standard (9-chloro-1-(2-furanyl)-[1,2,4]triazolo1,5-c]quinazolin-5-amine from Tocris Bioscience)
Make eight 1:3 serial dilutions in 100% DMSO from a 3 mM compound stock
Transfer 50 nl of compound into a 384-well OptiPlate (Perkin Elmer).
Typically, final concentrations of compound used in the assay ranged from 3000 nM to 0.152 nM.
Dilute a solution of the Tritiated compound to 1.25 nM in assay buffer. This is a 2.5× solution. The final concentration in the assay is 0.5 nM. Calculate the concentration by counting two 5 μl aliquots.
Use 0.25 ug of membrane/well. Dilute membranes to 9.7 μg/ml in assay buffer. Treat with 20 ug/ml adenosine deaminase (ADA) for 15 minutes at room temperature to degrade endogenous adenosine.
Use 100 μg/well wheat germ agglutinin-coated yttrium silicate SPA beads.
Mix ADA-treated membranes and SPA beads together for 30 min prior to assay.
To the Perkin-Elmer Optiplate-384 containing the compound titration add 20 μl of 2.5× solution of the Tritiated compound and 30 μl of the membrane-bead mixture. Incubate for one hour at room temperature with agitation.
Include total binding (assay buffer+1% DMSO) and non-specific binding (CGS15943, 1 μM) wells.
Allow the beads to settle for one hour.
A curve fitting program (i.e., Prism, Activity Base, Chemcart) is used to determine the EC50. The Ki value is calculated using the Cheng-Prusoff equation. Ki=EC50/(1+(radioligand concentration/Kd))

T1 sequence (P29274 whole entry): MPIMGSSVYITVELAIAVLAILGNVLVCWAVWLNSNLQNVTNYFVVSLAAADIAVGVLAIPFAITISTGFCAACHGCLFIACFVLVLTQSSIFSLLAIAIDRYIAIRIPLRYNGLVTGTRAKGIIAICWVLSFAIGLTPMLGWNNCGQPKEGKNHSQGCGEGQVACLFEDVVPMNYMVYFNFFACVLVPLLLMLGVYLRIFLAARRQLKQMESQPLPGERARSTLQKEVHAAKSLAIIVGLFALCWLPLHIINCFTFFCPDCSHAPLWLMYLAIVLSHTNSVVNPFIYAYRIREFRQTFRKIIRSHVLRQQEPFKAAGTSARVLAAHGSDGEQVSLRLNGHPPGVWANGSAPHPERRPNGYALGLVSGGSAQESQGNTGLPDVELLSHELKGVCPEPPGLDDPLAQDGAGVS

The term Ki denotes the dissociation constant of the complex between target and ligand, obtained from inhibition or displacement. Higher therefore signals a looser hold on the target. Compound `Cc1coc(-c2nc(N)c(C(=O)NCc3ncccc3C)nc2C)n1` [Ex-380, 3-amino-6-methyl-5-(4-methyl-1,3-oxazol-2-yl)-N-[(3-methylpyridin-2-yl)methyl]pyrazine-2-carboxamide] had a Ki of 0.384 nM.
On to `Cc1cccc(CNC(=O)c2nc(Cl)c(-n3nccn3)nc2N)n1` [Ex-326, 3-amino-6-chloro-N-[(6-methylpyridin-2-yl)methyl]-5-(2H-1,2,3-triazol-2-yl)pyrazine-2-carboxamide], for which the Ki turned out to be 6.1 nM.
In turn, `Cc1nc(C(=O)N2Cc3cncnc3C2)c(N)nc1-c1ncco1` [Ex-151, 3-(5,7-dihydro-6H-pyrrolo[3,4-d]pyrimidin-6-ylcarbonyl)-5-methyl-6-(1,3-oxazol-2-yl)pyrazin-2-amine] returned a Ki of 4.58 nM.
Consider `COCc1coc(-c2nc(N)c(C(=O)NCc3ncccc3C)nc2C)n1` [Ex-382, 3-amino-5-[4-(methoxymethyl)-1,3-oxazol-2-yl]-6-methyl-N-[(3-methylpyridin-2-yl)methyl]pyrazine-2-carboxamide], for which the inhibitory constant (Ki) came out at 38.4 nM.
Same read-out and setting: with `Cc1nc(C(=O)N[C@H]2CC[C@H](C(F)(F)F)CC2)c(N)nc1-c1ncco1` [Ex-118, 3-amino-6-methyl-5-(1,3-oxaozl-2-yl)-N-[trans-4-(trifluoromethyl)cyclohexyl] pyrazine-2-carboxamide] the figure was 31.7 nM; with `Cc1nc(C(=O)NCc2ncccc2CO)c(N)nc1-c1ncco1` [Ex-225, 3-amino-N-{[3-(hydroxymethyl)pyridin-2-yl]methyl}-6-methyl-5-(1,3-oxazol-2-yl)pyrazine-2-carboxamide], 0.178 nM; with `COc1ccc(CNC(=O)c2nc(C)c(-c3ncco3)nc2N)cc1` [Ex-148, 3-amino-N-(4-methoxybenzyl)-6-methyl-5-(1,3-oxazol-2-yl)pyrazine-2-carboxamide], 15.8 nM.
In turn, `Nc1nc(-n2nccn2)c(CO)nc1C(=O)NCc1cccc2cccnc12` [Ex-388, 3-amino-6-(hydroxymethyl)-N-(quinolin-8-ylmethyl)-5-(2H-1,2,3-triazol-2-yl)pyrazine-2-carboxamide] gave a Ki of 2.5 nM.
`Cc1nc(C(=O)NC2CCCC2F)c(N)nc1-c1ncco1` (centres unmarked) [Ex-210, 3-amino-N-(2-fluorocyclopentyl)-6-methyl-5-(1,3-oxazol-2-yl)pyrazine-2-carboxamide] yielded a Ki of 1.42 nM.
On the same count and under the same terms, with `Cc1nc(C(=O)NCc2ncc(C3CC3)cn2)c(N)nc1-c1ncco1` [Ex-197, 3-amino-N-[(5-cyclopropylpyrimidin-2-yl)methyl]-6-methyl-5-(1,3-oxazol-2-yl)pyrazine-2-carboxamide] the figure was 6.37 nM; with `Cc1nc(C(=O)NC2c3ncccc3CC2O)c(N)nc1-c1ncco1` (single isomer, unassigned) [Ex-238A, 3-amino-N-(6-hydroxy-6,7-dihydro-5H-cyclopenta[b]pyridin-7-yl)-6-methyl-5-(1,3-oxazol-2-yl)pyrazine-2-carboxamide], 5.51 nM; with `Cc1nc(C(=O)NCc2cccn(C)c2=O)c(N)nc1-c1ncco1` [Ex-50, 3-amino-6-methyl-N-[(1-methyl-2-oxo-1,2-dihydropyridin-3-yl)methyl]-5-(1,3-oxazol-2-yl)pyrazine-2-carboxamide], 1.25 nM.
For the compound `Nc1nc(-n2ccnn2)c(Cl)nc1C(=O)NCc1cccc2cccnc12` [Ex-272, 3-amino-6-chloro-N-(quinolin-8-ylmethyl)-5-(1H-1,2,3-triazol-1-yl)pyrazine-2-carboxamide], the inhibition constant (Ki) amounted to 269 nM.
In turn, `COc1ccc(CCNC(=O)c2nc(Cl)c(-n3nccn3)nc2N)cc1OC` [Ex-294, 3-amino-6-chloro-N-[2-(3,4-dimethoxyphenyl)ethyl]-5-(2H-1,2,3-triazol-2-yl)pyrazine-2-carboxamide] returned an inhibition constant (Ki) of 68.8 nM.
Still for that read-out and setting: with `Cc1nc(C(=O)NCc2nccc3c2ccn3C)c(N)nc1-c1ncco1` [Ex-214] the figure was 0.689 nM.
Compound `Nc1nc(-c2cnco2)c(Cl)nc1C(=O)NCc1cccc2cccnc12` [Ex-250, 3-amino-6-chloro-5-(1,3-oxazol-5-yl)-N-(quinolin-8-ylmethyl)pyrazine-2-carboxamide] showed a Ki of 2.4 nM.
`COc1cccc(CNC(=O)c2nc(C)c(-c3ncco3)nc2N)c1` [Ex-143, 3-amino-N-(3-methoxybenzyl)-6-methyl-5-(1,3-oxazol-2-yl)pyrazine-2-carboxamide] had a Ki of 1.72 nM.
Usually EC50 stands for the concentration needed to bring the measured effect to its halfway point. A lower EC50 goes with a more potent agent. `Cc1nc(C(=O)N[C@@H]2CCc3cccnc32)c(N)nc1-c1ncco1` (single isomer, unassigned) [Ex-1A]: the response was half-maximal at 4 nM (EC50).
`Cc1cnn(-c2nc(N)c(C(=O)NCc3nc4ccccc4n3C)nc2Cl)c1` [Ex-351, 3-amino-6-chloro-N-[(1-methyl-1H-benzimidazol-2-yl)methyl]-5-(4-methyl-1H-pyrazol-1-yl)pyrazine-2-carboxamide]: the Ki came out at 315 nM.
The compound `Cc1nc(C(=O)NCC2(C#N)CCC2)c(N)nc1-c1ncco1` [Ex-93, 3-amino-N-[(1-cyanocyclobutyl)methyl]-6-methyl-5-(1,3-oxazol-2-yl)pyrazine-2-carboxamide] came in with a Ki of 4 nM.
Compound `Cc1nc(C(=O)N2CCc3cccnc3C2)c(N)nc1-c1ncco1` [Ex-125, 3-(5,8-dihydro-1,7-naphthyridin-7(6H)-ylcarbonyl)-5-methyl-6-(1,3-oxazol-2-yl)pyrazin-2-amine] gave a Ki of 18.8 nM.
Same read-out and setting: with `Nc1nc(-n2nccn2)c(Cl)nc1C(=O)N[C@H](CO)Cc1ccccc1` [Ex-320, 3-amino-N-[(1S)-1-benzyl-2-hydroxyethyl]-6-chloro-5-(2H-1,2,3-triazol-2-yl)pyrazine-2-carboxamide] the figure was 149 nM.
Compound `Cc1nc(C(=O)NCc2nccn2C2CCC2)c(N)nc1-c1ncco1` [Ex-127, 3-amino-N-[(1-cyclobutyl-1H-imidazol-2-yl)methyl]-6-methyl-5-(1,3-oxazol-2-yl)pyrazine-2-carboxamide] yielded a Ki of 0.279 nM.
Turning to `Cc1nc(C(=O)NCc2cnn(C)c2C)c(N)nc1-c1ncco1` [Ex-78, 3-amino-N-[(1,5-dimethyl-1H-pyrazol-4-yl)methyl]-6-methyl-5-(1,3-oxazol-2-yl)pyrazine-2-carboxamide], the Ki worked out at 5.72 nM.
Compound `Cc1nc(C(=O)NCc2ccn(C)n2)c(N)nc1-c1ncco1` [Ex-26, 3-amino-6-methyl-N-[(1-methyl-1H-pyrazol-3-yl)methyl]-5-(1,3-oxazol-2-yl)pyrazine-2-carboxamide] registered a Ki of 1.71 nM.
Compound `Cc1nc(C)c(CNC(=O)c2nc(C)c(-c3ncco3)nc2N)s1` [Ex-71, 3-amino-N-[(2,4-dimethyl-1,3-thiazol-5-yl)methyl]-6-methyl-5-(1,3-oxazol-2-yl)pyrazine-2-carboxamide] displayed a Ki of 23.8 nM.
Compound `Cc1nc(C(=O)NCc2nn(C)cc2C2CC2)c(N)nc1-c1ncco1` [Ex-170, 3-amino-N-[(4-cyclopropyl-1-methyl-1H-pyrazol-3-yl)methyl]-6-methyl-5-(1,3-oxazol-2-yl)pyrazine-2-carboxmamide] registered a Ki of 0.482 nM.
Compound `COC(=O)[C@@H](CO)NC(=O)c1nc(Cl)c(-n2nccn2)nc1N` [Ex-318, methyl N-{[3-amino-6-chloro-5-(2H-1,2,3-triazol-2-yl)pyrazin-2-yl]carbonyl}-D-serinate] showed a Ki of 317 nM.
Compound `Cc1nc(C(=O)NCc2ncccc2C2CC2)c(N)nc1-c1ncco1` [Ex-6, 3-amino-N-[(3-cyclopropylpyridin-2-yl)methyl]-6-methyl-5-(1,3-oxazol-2-yl)pyrazine-2-carboxamide] yielded an EC50 of 5.9 nM and an inhibition constant (Ki) of 0.224 nM.
With `Cc1nc(C(=O)NCc2ncn(CC3CC3)c2C)c(N)nc1-c1ncco1` [Ex-100, 3-amino-N-{[1-(cyclopropylmethyl)-5-methyl-1H-imidazol-4-yl]methyl}-6-methyl-5-(1,3-oxazol-2-yl)pyrazine-2-carboxamide], affinity was put at a Ki of 110 nM.
As for `Cc1nc(C(=O)NC2CCc3c(Cl)ccnc32)c(N)nc1-c1ncco1` (single isomer, unassigned) [Ex-244A, 3-amino-N-(4-chloro-6,7-dihydro-5H-cyclopenta[b]pyridin-7-yl)-6-methyl-5-(1,3-oxazol-2-yl)pyrazine-2-carboxamide], the Ki came out at 0.22 nM.
